Laboratory results from PMC11960070 (Microbiology Spectrum, 2025).
Where no end group is shown, it is not given here.

Assays:
[1] = system: B. burgdorferi seropositive serum samples; experiment: MIA: Lyme disease-positive human serum IgG binding to Ala-substituted 130–150 peptides; conditions: n = 26 sera, 1:100
mAb 8C1 = experiment: MIA: 8C1 reactivity with OspC-derived peptides / alanine scan

Substance | Effect of Ala substitution on peptide recognition by human serum samples [1] | 8C1 reactivity with OspCA peptide (mAb 8C1)
D144: 130–150 peptide with single Ala substitution at D144 (CSETFTNKLKEKHTALGKEGV; also: biotinylated, site not given here; UniProt Q07337 130-150, looked up, variant D144A) | negatively affected | 
130–150: OspCA-derived peptide composed of residues 130-150 (CSETFTNKLKEKHTDLGKEGV; UniProt Q07337 130-150, looked up, fragment) |  | reacted strongly
E140: 130–150 peptide with single Ala substitution at E140 (CSETFTNKLKAKHTDLGKEGV; also: biotinylated, site not given here; UniProt Q07337 130-150, looked up, variant E140A) | negatively affected | 
